Laboratory results reported in patent US5763441A, “Compounds for the treatment of disorders related to vasculogenesis and/or angiogenesis” (Sugen, Inc., priority 1995, dated 1998).

Tests used:
FLK-1 receptor = target: T1, FLK-1 receptor (Mus musculus, UniProt P35918); assay: ELISA assay to measure kinase activity of FLK-1 receptor in FLK-1/NIH cells; assay type: cell-based, murine
T1 construct: expressed in transfected cells; host or cells: NIH3T3C7#3 cells (FLK-1 infected NIH3T3)
Description: ELISA Assay To Measure Kinase Activity Of FLK-1 Receptor In FLK-1/NIH Cells
An ELISA assay was conducted to measure the kinase activity of the FLK-1 receptor and more specifically, the inhibition or activiation of protein tyrosine kinase activity on the FLK-1 receptor.
k. NIH3T3C7#3 Cells (FLK-1 infected cells);
Protocol. The following protocol was used to conduct the ELISA Assay:
1. Coat Corning 96-well elisa plates with 1.0 ug per well Cappel Anti-rabbit IgG antibody in 0.1M Na2CO3 pH 9.6. Bring final volume to 150 ul per well. Coat plates overnight at 4° C. Plates can be kept up to two weeks when stored at 4° C.
2. Grow cells in 30 ml of Growth media 9DMEM. 2.0 mM L-Glutamine, 10% FBS) until confluent in 150 cm tissue culture dishes at 37° C., 5% CO2.
3. Harvest cells by tyrpsination and seed in Corning 25850 polystyrene 96-well roundbottom cell plates, 25.000 cells/well in 200 uL of growth media.
4. Grow cells at least one day at 37° C., 5% CO2.
5. Wash cells with D-PBS 1X.
6. Add 200 ul/well of starvation media (DMEM, 2.0 mM l-Glutamine, 0.1% FBS). Incubate overnight at 37° C., 5% CO2.
7. Dilute Compounds/Extracts 1:20 in polyproplyene 96 well plates using starvation media. Dilute dimethylsulfoxide 1:20 for use in control wells.
8. Remove starvation media from 96 well cell culture plates and add 162 ul of fresh starvation media to each well.
9. Add 18 ul of 1:20 diluted Compound/Extract dilution (from step #7) to each well plus the 1:20 dimethylsulfoxide dilution to the control wells (+/-VEGF), for a final dilution of 1:200 after cell stimulation. Final dimethylsulfoxide is 0.5%. Incubate the plate at 37° C., 5% CO2 for two hours.
10. Remove unbound antibody from Elisa plates by inverting plate to remove liquid. Wash 3 times with TBSW+0.5% Ethanolamine, pH 7.0. Pat the plate on a paper towel to remove excess liquid and bubbles.
11. Block plates with TBSW+0.5% Ethanolamine, pH 7.0. 150 ul per well. Incubate plate thirty minutes while shaking on a microtiter plate shaker.
12. Wash plate 3 times as described in step 10.
13. Add 0.5 ug/well affinity purified anti-flk-1 polyclonal rabbit antiserum. Bring final volume to 150 ul/well with TBSW+0.5k Ethanolamine pH 7.0. Incubate plate for thirty minutes while shaking.
14. Add 180 μl starvation medium to the cells and stimulate cells with 20 ul/well 10.0 mM Sodium Ortho Vanadate and 500 ng/ml VEGF (resulting in a final concentration of 1.0 mM Sodium Ortho Vanadate and 50 ng/ml VEGF per well) for eight minutes at 37° C., 5% CO2. Negative control wells receive only starvation medium.
15. After eight minutes, media are removed from the cells and washed one time with 200 ul/well PBS.
16. Lyse cells in 150 ul/well HNTG while shaking at room temperature for five minutes. HNTG formulation includes sodium ortho vanadate, sodium pyro phosphate and EDTA.
17. Wash Elisa plate three times as described in step 10.
18. Transfer cell lysates from the cell plate to elisa plate and incubate while shaking for two hours. To transfer cell lysate pipette up and down while scrapping the wells.
19. Wash plate three times as described in step 10.
20. Incubate Elisa plate with 0.02 ug/well UB40 in TBSW+05% ethanolamine. Bring final volume to 150 ul/well. Incubate while shaking for 30 minutes.
21. Wash plate three times as described in step 10.
22. Incubate elisa plate with 1:10,000 diluted EIA grade Goat anti-mouse IgG conjugated horseradish peroxidase in TBSW+0.5% ethanolamine, pH 7.0. Bring final volume to 150 ul/well. Incubate while shaking for thirty minutes.
23. Wash plate as described in step 10.
24. Add 100 ul of ABTS/H202 solution to well. Incubate ten minutes while shaking.
25. Add 100 ul of 0.2M HCL for 0.1M HCL final to stop the colordevelopment reaction. Shake 1 minute at room temperature. Remove bubbles with slow stream of air and read the ELISA plate in an ELISA plate reader at 410 nm.

Calu-6 = assay: Tumor xenograft growth inhibition, Calu-6 (lung); assay type: in vivo, human
From the text: The ability of one of the compounds of the present invention, leflunomide (Compound 40), to inhibit ovarian, melanoma, prostate, lung and mammary tumor cell lines established as SC xenografts was examined. […]
(§1) The tumor cells were implanted subcutaneously into the indicated strains of mice. Treatment was initiated on day 1 post implantation unless otherwise indicated (e.g. treatment of the SCID mouse related to the A375 melanoma cell line began on Day 9). Eight (8) to ten (10) mice comprised each test group.
(§2) Animals. Female athymic mice (BALB/c, nu/nu), BALB/c mice, Wistar rats and Fisher 344 rats were obtained from Simonsen Laboratories (Gilroy, Calif.). Female A/I mice were obtained from Jackson Laboratory (Bar Harbor, Me.). DA rats were obtained from B&K Universal, Inc. (Fremont, Calif.). Athymic R/Nu rats, DBA/2N mice, and BALB/c mice were obtained from Harlan Sprague Dawley (Indianapolis, Ind.). Female C57BL/6 mice were obtained from Taconic (Germantown, N.Y.). All animals were maintained under clean-room conditions in Micro-isolator cages with Alpha-dri bedding. They received sterile rodent chow and water ad libitum.
(§3) Subcutaneous Xenograft Model. Cell lines were grown in appropriate medium as described (See Section 6). Cells were harvested at or near confluency with 0.05% Trypsin-EDTA and pelleted at 450×g for 10 min. Pellets were resuspended in sterile PBS or media (without FBS) to a suitable concentration indicated in the Figure legends and the cells were implanted into the hindflank of mice. Tumor growth was measured over 3 to 6 weeks using venier calipers tumor volumes were calculated as a product of length x width x height unless otherwise indicated. P values were calculated using the Students' t-test. su101 in 50-100 uL excipient (dimethylsulfoxide, PBTE, PBTE6C:D5W, or PBTE:D5W) was delivered by IP injection at concentrations indicated in the Figure legends.

A375 = assay: Tumor xenograft growth inhibition, A375 (melanoma); assay type: in vivo, human; conditions: for % Inhibition (day): day 31
Description: (§4) The ability of one of the compounds of the present invention, leflunomide (Compound 40), to inhibit ovarian, melanoma, prostate, lung and mammary tumor cell lines established as SC xenografts was examined. These studies were conducted using doses ranging from 12 to 20 mg/kg/day.
as §1, §2, §3

PA-1 = assay: Tumor xenograft growth inhibition, PA-1 (ovarian); assay type: in vivo, human
Description: as §4, §1
Animals. Female athymic mice (BALB/c, nu/nu), BALB/c mice, Wistar rats and Fisher 344 rats were obtained from Simonsen Laboratories (Gilroy, Calif.). Female A/I mice were obtained from Jackson Laboratory (Bar Harbor, Me.). DA rats were obtained from B&K Universal, Inc. (Fremont, Calif.). Athymic R/Nu rats, DBA/2N mice, and BALB/c mice were obtained from Harlan Sprague Dawley (Indianapolis, Ind.). […]
Subcutaneous Xenograft Model. […] Tumor growth was measured over 3 to 6 weeks using venier calipers tumor volumes were calculated as a product of length x width x height unless otherwise indicated. P values were calculated using the Students' t-test. su101 in 50-100 uL excipient (dimethylsulfoxide, PBTE, PBTE6C:D5W, or PBTE:D5W) was delivered by IP injection at concentrations indicated in the Figure legends.

PC-3 = assay: Tumor xenograft growth inhibition, PC-3 (prostate); assay type: in vivo, human
Description: as §4, §1, §2, §3

[1] = system: VEGF-induced "reddening" response and subsequent swelling (FLK-1 receptor); assay: In vivo VEGF pellet model; set-up: species or system nude mice (Balb/C athymic nu/nu); conditions: scored at 24 hours and 48 hours; drug in methylcellulose disc near VEGF pellet
From the text: In this model, VEGF is packaged into a time-release pellet and implanted subcutaneously on the abdomen of nude mice to induce a `reddening` response and subsequent swelling around the pellet. Potential FLK-1 inhibitors may then be implanted in methylcellulose near the VEGF pellet ito determine whether such inhibitor may be used to inhibit the "reddening" response and subsequent swelling.
1) VEGF--human recombinant lyophilized product is commercially may be obtained from Peprotech, Inc., Princeton Business Park, G2; P.O. box 275, Rocky Hill, N.J. 08553.
2) VEGF packaged into 21 day release pellets were obtained from Innovative Research of America, using patented matrix driven delivery system. Pellets were packaged at […], 0.21, or 2.1 μg VEGF/pellet. These doses approximate 10 and 100 ng/day release of VEGF. (Innovative Research of America, 3361 Executive Parkway, P.O. box 2746, Toledo, Ohio 43606)
Protocol. The following protocol was then followed to conduct the VEGF pellet model:
1) VEGF, purchased from Peprotech, was sent to Innovative Research for Custom Pellet preparation;
2) Methylcellulose prepared at 1.5% (w/v) in sterile water;
3) Drugs solublized in methanol (usual concentration range=10 to 20 mg/ml);
4) Place sterile parafilm in sterile 10 cm plates; […]
9) Mice were scored at 24 hours and 48 hours for reddening and swelling response. […]

T1 sequence (P35918 20-1345): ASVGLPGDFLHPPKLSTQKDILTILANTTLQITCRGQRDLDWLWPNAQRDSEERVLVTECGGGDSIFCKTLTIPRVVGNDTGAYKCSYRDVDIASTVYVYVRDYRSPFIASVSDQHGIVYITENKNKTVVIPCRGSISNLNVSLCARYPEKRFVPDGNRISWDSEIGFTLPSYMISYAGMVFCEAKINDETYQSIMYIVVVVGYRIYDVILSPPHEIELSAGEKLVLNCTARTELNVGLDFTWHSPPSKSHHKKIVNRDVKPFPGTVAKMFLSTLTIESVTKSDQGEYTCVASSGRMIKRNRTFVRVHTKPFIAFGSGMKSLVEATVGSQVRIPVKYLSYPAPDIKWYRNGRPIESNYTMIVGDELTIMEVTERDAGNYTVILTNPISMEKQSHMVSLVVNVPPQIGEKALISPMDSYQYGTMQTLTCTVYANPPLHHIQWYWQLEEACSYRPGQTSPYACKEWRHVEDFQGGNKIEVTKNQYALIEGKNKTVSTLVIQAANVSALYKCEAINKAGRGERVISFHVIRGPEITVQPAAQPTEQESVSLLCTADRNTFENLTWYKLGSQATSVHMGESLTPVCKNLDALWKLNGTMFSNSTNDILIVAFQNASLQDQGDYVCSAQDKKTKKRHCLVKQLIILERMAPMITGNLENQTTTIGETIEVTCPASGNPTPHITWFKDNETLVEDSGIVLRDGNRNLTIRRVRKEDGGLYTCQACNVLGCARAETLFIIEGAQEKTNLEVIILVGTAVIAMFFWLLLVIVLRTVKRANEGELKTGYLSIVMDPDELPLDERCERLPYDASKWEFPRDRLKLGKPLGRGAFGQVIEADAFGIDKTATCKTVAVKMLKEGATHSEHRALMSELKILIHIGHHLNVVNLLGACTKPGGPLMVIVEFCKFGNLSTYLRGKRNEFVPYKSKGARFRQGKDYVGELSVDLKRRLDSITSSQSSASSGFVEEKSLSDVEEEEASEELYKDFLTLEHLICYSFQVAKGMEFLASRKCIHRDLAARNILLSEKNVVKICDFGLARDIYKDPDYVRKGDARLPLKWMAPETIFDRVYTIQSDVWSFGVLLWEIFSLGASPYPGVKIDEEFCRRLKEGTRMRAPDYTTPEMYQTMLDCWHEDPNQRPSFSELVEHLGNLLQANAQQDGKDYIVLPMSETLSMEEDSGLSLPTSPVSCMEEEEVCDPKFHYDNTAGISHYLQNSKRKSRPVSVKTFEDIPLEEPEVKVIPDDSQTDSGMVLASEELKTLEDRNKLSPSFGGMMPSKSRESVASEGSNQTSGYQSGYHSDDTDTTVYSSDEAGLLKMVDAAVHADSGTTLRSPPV

SMILES: Cc1oncc1C(=O)Nc1ccc(C(F)(F)F)cc1 [Compound 40, leflunomide]
- IC50 (FLK-1 receptor): 54 µM
- inhibition, CALU-6 (Calu-6; 20 mg/kg/day): 63.9%
- inhibition of the growth of human lung (Calu-6) (Calu-6; in words): effectively inhibited the growth
- % Inhibition (day) (Calu-6; nu/nu, 20 mg/kg/day, day 28, P < 0.0001): 64%
- % Inhibition (day) (A375; SCID (day 9), 15 mg/kg/day, P < 0.002): 53%
- inhibition of the growth of human melanoma (A375) (A375; in words): effectively inhibited the growth
- % Inhibition (day) (A375; nu/nu, 20 mg/kg/day, P < 0.03): 53%
- inhibition of the growth of human ovarian (PA-1) (PA-1; in words): effectively inhibited the growth
- % Inhibition (day) (PA-1; nu/nu, 20 mg/kg/day, day 36, P < 0.04): 53%
- % Inhibition (day) (PC-3; SCID (day 15), 12 mg/kg/day, day 36, P < 0.001): 47%
- inhibition of the growth of human prostate (PC-3) (PC-3; in words): effectively inhibited the growth
- % Inhibition (day) (PC-3; nu/nu, 20 mg/kg/day, day 45, P < 0.01): 71%

SMILES: COc1cc2ncnc(Nc3ccc(I)cc3)c2cc1OC [Compound 15, 4-(4-iodophenylamino)-6,7-dimethoxy quinazoline]
- inhibition of the "reddening" response and subsequent swelling [1]: inhibited the "reddening" response and subsequent swelling

SMILES: CC(C)c1cc(/C=C(\C#N)C(=O)NCCCc2ccccc2)cc(C(C)C)c1O [Compound 5]
- IC50 (FLK-1 receptor): 0.7 µM
- inhibition of the "reddening" response and subsequent swelling [1]: inhibited the "reddening" response and subsequent swelling
